According to patent US20230115176A1 (Ra Pharmaceuticals, Inc., priority 2019, published 2023):
Values after ≈ are worked out from the molar mass of the structure shown.

Columns and labels:
[1] = Kinetic solubility in PBS pH 7.4, HPLC-UV (Example 21, Table 27); assay type: physicochemical; conditions: phosphate buffered saline, aqueous buffer, kinetic from dmso stock, 0.5 M PBS, shaken minimum 24 h at approximately 25° C., HPLC-UV 270 nm
Experimental: Compounds were analyzed for kinetic solubility values using a standard kinetic solubility assay format. First, test compounds were dissolved in DMSO (Aldrich Chemical Co., Milwaukee, Wis., USA) at a concentration of 0.010 mol/L and used to prepare standard calibrators in DMSO solution. 500.0 μM, 250.0 μM, 125.0 μM, 62.5 μM, 31.2 μM, and 15.6 μM standards were prepared in a Greiner UV-Star clear V-bottom 96-well plate (Greiner-Bio One, Germany) for generating a standard curve. Using Alfa Aesar's Sodium phosphate, 0.2 M buffer solution, pH 7.4 (Alfa Aesar, Haverhill, Mass., USA), aqueous phosphate buffered saline (PBS) was prepared by diluting with Milli-Q water for a final concentration of 0.05 M. The pH of the solution was adjusted to 7.4±0.1 using 0.1 M hydrochloric acid (Fisher Scientific Waltham, Mass., USA) or 0.1 M aqueous sodium hydroxide (Fisher Scientific Waltham, Mass., USA).
10 μL of 0.010 mol/L DMSO test compound stock solutions were pipetted to separate 1.5 mL centrifuge tubes in triplicate. To these tubes, 190 μl of 0.05 M PBS was added. Each tube was gently vortexed for 5 sec. The tubes were shaken for a minimum of 24 h at approximately 25° C. After shaking, the solutions were transferred to 0.5 mL centrifuge filter tubes (MilliporeSigma, Burlington, Mass., USA) and centrifuged at 10,000 rpm for 5 min. After centrifugation, supernatants were collected and used for compound concentration analysis.
Compound concentrations in each solution were determined using high pressure liquid chromatography (HPLC) with ultraviolet (UV) detection and comparison with external standards. For HPLC, a Waters Acquity CSH Phenyl-Hexyl column (2.1 mm×50 mm, 1.7 μm) was used together with a generic gradient method on a Waters H-class system equipped with a diode array detector: Solvent A=0.1% formic acid in water, Solvent B=0.1% formic acid in acetonitrile (MilliporeSigma, Burlington, Mass., USA), flow=0.65 mL/min, (t=0 min: 95% A-5% B, t=4.75 min: 0% A-100% B, t=4.85 min: 0% A-100% B, t=4.86 min: 95% A-5% B, t=5 min: 95% A-5% B). UV quantifications were performed at 270 nm. Solution concentrations were calculated using Microsoft Excel.

Human C5 = molecular target: T1, Human C5 (Homo sapiens, UniProt P01031); assay: Red blood cell (RBC) hemolysis assay, luminescent (Example 13, Table 22); assay type: cell-based; conditions: sheep EA cells, […] C5-depleted human serum, 0.5 nM human C5, 1 hour 37° C., luminescence; also: 1.5% C5-depleted human serum
T1 construct: purchased Complement Technology
T1 sequence (P01031 19-1676): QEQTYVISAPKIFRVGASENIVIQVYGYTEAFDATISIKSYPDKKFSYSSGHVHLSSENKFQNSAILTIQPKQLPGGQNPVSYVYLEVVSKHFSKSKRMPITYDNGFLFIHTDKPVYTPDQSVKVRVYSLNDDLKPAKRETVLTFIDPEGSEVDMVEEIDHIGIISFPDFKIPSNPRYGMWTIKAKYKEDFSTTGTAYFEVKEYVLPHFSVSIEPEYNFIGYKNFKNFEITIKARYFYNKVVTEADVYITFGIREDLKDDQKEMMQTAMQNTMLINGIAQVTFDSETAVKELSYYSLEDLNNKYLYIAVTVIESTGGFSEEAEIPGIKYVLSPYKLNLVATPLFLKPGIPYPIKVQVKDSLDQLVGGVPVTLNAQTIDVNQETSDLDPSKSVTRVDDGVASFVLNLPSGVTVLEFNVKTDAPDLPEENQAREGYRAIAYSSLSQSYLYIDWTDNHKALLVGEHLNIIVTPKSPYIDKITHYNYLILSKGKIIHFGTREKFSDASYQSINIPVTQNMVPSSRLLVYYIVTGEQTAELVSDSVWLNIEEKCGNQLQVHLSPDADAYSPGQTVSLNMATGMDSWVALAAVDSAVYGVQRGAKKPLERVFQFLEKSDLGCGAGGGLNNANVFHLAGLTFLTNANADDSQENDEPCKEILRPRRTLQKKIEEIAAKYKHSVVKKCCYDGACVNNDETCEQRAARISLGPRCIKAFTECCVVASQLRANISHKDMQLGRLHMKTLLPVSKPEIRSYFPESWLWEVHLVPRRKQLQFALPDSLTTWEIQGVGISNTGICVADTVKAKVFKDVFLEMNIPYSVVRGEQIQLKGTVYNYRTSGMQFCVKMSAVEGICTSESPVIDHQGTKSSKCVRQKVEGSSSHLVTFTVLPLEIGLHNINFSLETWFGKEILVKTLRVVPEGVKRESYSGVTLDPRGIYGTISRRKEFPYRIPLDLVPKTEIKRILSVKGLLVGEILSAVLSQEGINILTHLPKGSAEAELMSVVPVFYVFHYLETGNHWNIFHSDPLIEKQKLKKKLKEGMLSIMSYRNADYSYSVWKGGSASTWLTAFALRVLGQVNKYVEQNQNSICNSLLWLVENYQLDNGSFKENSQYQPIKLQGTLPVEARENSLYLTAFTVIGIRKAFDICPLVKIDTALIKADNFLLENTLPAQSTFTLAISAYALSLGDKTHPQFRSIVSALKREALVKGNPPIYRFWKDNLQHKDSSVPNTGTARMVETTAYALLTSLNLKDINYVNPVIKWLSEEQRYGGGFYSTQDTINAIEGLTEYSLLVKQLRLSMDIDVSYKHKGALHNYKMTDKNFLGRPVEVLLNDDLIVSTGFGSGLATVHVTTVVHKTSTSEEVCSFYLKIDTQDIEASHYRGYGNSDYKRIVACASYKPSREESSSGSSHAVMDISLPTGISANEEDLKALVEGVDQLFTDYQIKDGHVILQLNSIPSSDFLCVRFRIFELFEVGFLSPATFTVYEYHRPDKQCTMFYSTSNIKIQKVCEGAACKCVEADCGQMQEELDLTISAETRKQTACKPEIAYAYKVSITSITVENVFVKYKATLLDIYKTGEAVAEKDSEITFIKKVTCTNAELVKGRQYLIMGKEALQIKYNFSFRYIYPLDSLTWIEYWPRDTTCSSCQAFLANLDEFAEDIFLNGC
Description: Compound CU0136 is a racemic mixture of Compound CU0186 and CU0187. Numbers in parenthesis following compound numbers indicate alternate enantiomers (as distinguished by retention time during chromatographical separation).

Row | Structure (SMILES) | solubility kinetic [1] [µM] | IC50 (Human C5) [nM]
1 | COc1cc(CC(=O)N(C)C)ccc1CN1CCCN(c2ccc(OC)c(OCCC[C@H]3C[C@H]3C)c2)C1=O (racemic) [CU0226] | 286 (≈ 150 µg/mL) | 15.7
2 | CCCCCOc1cc(N2CCCN(Cc3ccc(CC(=O)N4CCO[C@@H](CN(C)C)C4)cc3OC)C2=O)ccc1OC (stereo in doubt) [CU0186] | 348 (≈ 208 µg/mL) | 18.8
3 | CCCCCOc1cc(N2CCCN(Cc3ccc(CC(=O)N4CCO[C@H](CN(C)C)C4)cc3OC)C2=O)ccc1OC (stereo in doubt) [CU0187] | 417 (≈ 249 µg/mL) | 14.8
4 | COc1cc(CC(=O)NC2CCN(C(C)C)CC2)ccc1CN1CCCN(c2ccc(OC)c(OCCCC(C)(F)F)c2)C1=O [CU0141] | 366 (≈ 231 µg/mL) | 13.1
5 | COc1ccc(F)cc1CN1CCCN(c2ccc(OC)c(OCCC3CCC3)c2)C1=O [CU0154] | 58 (≈ 25.7 µg/mL) | 22.6
6 | CCCCCOc1cc(N2CCCN(Cc3ccc(CNC(=O)c4cocn4)cc3OC)C2=O)ccc1OC [CU0161] | 77 (≈ 41.3 µg/mL) | 22.9
7 | COc1cc(CC(=O)N2CCOC(CN(C)C)C2)ccc1CN1CCCN(c2ccc(OC)c(OCCCC(C)(F)F)c2)C1=O (centres unmarked) [CU0170] | 435 (≈ 275 µg/mL) | 20.1
8 | CCCCCOc1cc(N2CCCN(Cc3ccc(CC(=O)N4CCN=C(N(C)C)C4)cc3OC)C2=O)ccc1OC [CU0173] | 368 (≈ 213 µg/mL) | 11.4
9 | CCC(F)(F)CCOc1cc(N2CCCN(Cc3ccc(CC(=O)N4CCOC(CN(C)C)C4)cc3OC)C2=O)ccc1OC (centres unmarked) [CU0175] | 486 (≈ 308 µg/mL) | 28.1
10 | CCCCCOc1cc(N2CCCN(Cc3ccc(CC(=O)N(C)C4CCN(CC)C4)cc3OC)C2=O)ccc1OC (centres unmarked) [CU0177] | 351 (≈ 204 µg/mL) | 21.1
11 | CCCCCOc1cc(N2CCCN(Cc3ccc(CCN4CCN(C)CC4)cc3OC)C2=O)ccc1OC [CU0178] | 423 (≈ 228 µg/mL) | 26.7
12 | CCCCCOc1cc(N2CCCN(Cc3ccc(CC(N)=O)cc3OC)C2=O)ccc1OC [CU0188] | 73 (≈ 34.3 µg/mL) | 19.9
13 | CCCCCOc1cc(N2CCCN(Cc3ccc(CCN4CCCCC4=O)cc3OC)C2=O)ccc1OC [CU0190] | 139 (≈ 74.7 µg/mL) | 41.4
14 | CCCCCOc1cc(N2CCCN(Cc3ccc(CC(=O)N4CCO[C@H](COC)C4)cc3OC)C2=O)ccc1OC [CU0196] | > 500 | 21.1
15 | CCCCCOc1cc(N2CCCN(Cc3ccc(CN)cc3OC)C2=O)ccc1OC [CU0201] | 389 (≈ 172 µg/mL) | 7.4
16 | CCC(F)(F)CCOc1cc(N2CCCN(Cc3ccc(CC(=O)NC4CCN(C(C)C)CC4)cc3OC)C2=O)ccc1OC [CU0207] | 415 (≈ 262 µg/mL) | 13.1
17 | CCCCCOc1cc(N2CCCN(Cc3ccc(Cc4nnnn4C)cc3OC)C2=O)ccc1OC [CU0211] | 112 (≈ 57 µg/mL) | 15.6
18 | CCCCCOc1cc(N2CCCN(Cc3ccc(Cc4nnn(C)n4)cc3OC)C2=O)ccc1OC [CU0212] | 52 (≈ 26.4 µg/mL) | 23.6
19 | COc1cc(CC(=O)N(C)C)ccc1CN1CCCN(c2ccc(OC)c(OCC[C@@H]3C[C@@H]4CC[C@H]3C4)c2)C1=O [CU0213] | 17 (≈ 9.35 µg/mL) | 20.4
20 | COc1cc(CC(=O)N(C)C)ccc1CN1CCCN(c2ccc(OC)c(OCCCC(F)(F)C(F)(F)F)c2)C1=O [CU0214] | 209 (≈ 123 µg/mL) | 21.1
21 | CCCCCOc1cc(N2CCCN(Cc3ccc(CC(=O)N4CCO[C@@H](COC)C4)cc3OC)C2=O)ccc1OC [CU0224] | 466 (≈ 272 µg/mL) | 15.4
22 | CCCCCOc1cc(N2CCCN(Cc3cccc4c3ccn4CC(=O)N3CCN=C(N(C)C)C3)C2=O)ccc1OC [CU0239] | 333 (≈ 196 µg/mL) | 11.2
23 | CCCCCOc1cc(N2CCCN(Cc3cccc4c3ccn4CC(=O)NC3CNC(=O)C3)C2=O)ccc1OC (centres unmarked) [CU0243] | < 10 | 5.5
24 | CCCCCOc1cc(N2CCCN(Cc3cccc4c3ccn4CC(=O)NC3CCNC(=O)C3)C2=O)ccc1OC (centres unmarked) [CU0244] | 200 (≈ 115 µg/mL) | 6.7
25 | CCCCCOc1cc(N2CCCN(Cc3cccc4c3ccn4CC(=O)NC3(C)COC3)C2=O)ccc1OC [CU0245] | 142 (≈ 77.9 µg/mL) | 12.2

Row | Structure (SMILES) | solubility kinetic [1] [µM] | IC50 (Human C5) [nM]
26 | CCCCCOc1cc(N2CCCN(Cc3ccc(CNC(=O)c4ccnnc4)cc3OC)C2=O)ccc1OC [CU0503] | 62 (≈ 34 µg/mL) | 
27 | CCCCCOc1cc(N2CCCN(Cc3ccc(CNC(=O)c4cccnn4)cc3OC)C2=O)ccc1OC [CU0505] | 60 (≈ 32.9 µg/mL) | 
28 | COc1ccc(N2CCCN(Cc3ccnc4c3c(Cl)cn4CC(=O)N3CCNC(=O)C3)C2=O)cc1OCCCC1CC1 [CU0522] | < 10 | 
29 | CCCCCOc1cc(N2CCCN(Cc3ccc(CNC(=O)c4cnnn4C)cc3OC)C2=O)ccc1OC [CU0544] | 50 (≈ 27.5 µg/mL) | 
30 | COc1cc(CNC(C)=O)ccc1CN1CCCN(c2ccc(OC)c(OCCCC3CCC3)c2)C1=O [CU0546] | < 10 | 
31 | CCCCCOc1cc(N2CCCN(Cc3ccnc4c3c(Cl)cn4CCN3CCS(=O)(=O)CC3)C2=O)ccc1OC [CU0551] | 12 (≈ 7.42 µg/mL) | 
32 | CCCCCOc1cc(N2CCCN(Cc3ccnc4c3c(Cl)cn4CC(=O)NC(C)C)C2=O)ccc1OC [CU0553] | 12 (≈ 6.67 µg/mL) | 
33 | CCCCCOc1cc(N2CCCN(Cc3ccnc4c3c(Cl)cn4Cc3nnn(C)n3)C2=O)ccc1OC [CU0556] | < 10 | 
34 | CCCCCOc1cc(N2CCCN(Cc3ccnc4c3c(Cl)cn4CCOCCNC(C)=O)C2=O)ccc1OC [CU0559] | < 10 | 
35 | CCCCCOc1cc(N2CCCN(Cc3ccnc4c3c(Cl)cn4CCOC(=O)N3CCS(=O)(=O)CC3)C2=O)ccc1OC [CU0563] | 19 (≈ 12.6 µg/mL) | 
36 | CCCCCOc1cc(N2CCCN(Cc3ccnc4c3c(Cl)cn4CCN3CCCC3)C2=O)ccc1OC [CU0564] | 249 (≈ 138 µg/mL) | 
37 | CCCCCOc1cc(N2CCCN(Cc3ccnc4c3c(Cl)cn4Cc3nnnn3C)C2=O)ccc1OC [CU0570] | < 10 | 
38 | CCCCCOc1cc(N2CCCN(Cc3ccnc4c3c(Cl)cn4CCN3CCCS3(=O)=O)C2=O)ccc1OC [CU0577] | 13 (≈ 7.85 µg/mL) | 
39 | COc1ccc(N2CCCN(Cc3ccnc4c3c(Cl)cn4CC(=O)N(C)C)C2=O)cc1OCCCC(C)(C)C [CU0595] | < 10 | 
40 | CCCCCOc1cc(N2CCCN(Cc3ccc(C4CNC(=O)O4)cc3OC)C2=O)ccc1OC (centres unmarked) [CU0611] | 170 (≈ 84.6 µg/mL) | 
41 | CCCCCOc1cc(N2CCCN(Cc3ccc(Cc4cnccn4)cc3OC)C2=O)ccc1OC [CU0614] | 101 (≈ 51 µg/mL) | 
42 | CCCCCOc1cc(N2CCCN(Cc3ccc(C4CN(C)C(=O)O4)cc3OC)C2=O)ccc1OC (centres unmarked) [CU0618] | 179 (≈ 91.6 µg/mL) | 
43 | CCCCCOc1cc(N2CCCN(Cc3ccnc4c3c(Cl)cn4C(C)C(=O)N3CN(C(C)C)C3)C2=O)ccc1OC (centres unmarked) [CU0620] | 275 (≈ 168 µg/mL) | 
44 | CCCCCOc1cc(N2CC[C@H](C)N(Cc3cccc4[nH]cc(Cl)c34)C2=O)ccc1OC [CU0623] | 364 (≈ 171 µg/mL) | 
45 | COc1cc(CCNC2CCN(C)C2=O)ccc1CN1CCCN(c2ccc(OC)c(OCCCC3CC3)c2)C1=O (centres unmarked) [CU0643] | > 500 | 
46 | CCCCCOc1cc(N2CCCN(Cc3ccnc4c3ccn4[C@@H]3CCN(C)C3=O)C2=O)ccc1OC [CU0667] | 139 (≈ 72.2 µg/mL) | 
47 | CCCCCOc1cc(N2CCCN(Cc3ccc(Cc4ccccn4)cc3OC)C2=O)ccc1OC [CU0672] | 440 (≈ 222 µg/mL) | 
48 | CCCCCOc1cc(N2CCCN(Cc3cncc4c3c(Cl)cn4CC(=O)N(C)C)C2=O)ccc1OC [CU0673] | 11 (≈ 5.96 µg/mL) | 
49 | CCCCCOc1cc(N2CCCN(Cc3ccc(CNC(=O)c4cnccn4)cc3OC)C2=O)ccc1OC [CU0677] | 71 (≈ 38.9 µg/mL) | 
